Reference: patent publication US7087433B2, “7SK RNA regulated transcription” (The Regents of the University of California, priority 2002, dated 2006)
Starred links: 1 amine or outer side, 2 acyl side, 3 side chain; linkers in the order of their positions; H or OH if unused. Positions of bridges follow the written chain, without caps; N, C: chain ends. Non-standard residues stand in square brackets, D forms with d. Residues, ends and D or L forms follow the SMILES beside them. Chains are numbered I, II in the order given. Actinocin(9to1) = Cc1c2oc3c(C)ccc(C(=O)[*:1])c3nc-2c(C(=O)[*:2])c(N)c1=O; NMeV = CN[C@H](C(=O)O)C(C)C; Sar = CNCC(=O)O

Columns and labels:
7SK/P-TEFb interaction [1] = assay: 7SK/P-TEFb interaction in nuclear extracts of treated F1C2 cells; assay type: cell-based, human; settings: nuclear extract
Text: Certain agents that elicit SOS-like stress responses in mammalian cells can markedly enhance HIV-1 transcription in a manner analogous to prophage induction in Escherichia coli (6–8,20,21). […] In light of these observations, we investigated the effect of ultraviolet irradiation and actinomycin D on the 7SK/P-TEFb interaction in nuclear extracts of the treated F1C2 cells. […] Neither the level of total 7SK in the nuclear extract nor the CDK9/cyclin T1 interaction was affected. […] As for ultraviolet irradiation, 7SK was dissociated from P-TEFb as early as 15–30 min after treatment, long before any signs of apoptosis appeared. Thus, stress signals such as ultraviolet irradiation and actinomycin D can cause fast and efficient 7SK dissociation from P-TEFb, which explains their positive effects on HIV-1 transcription and Pol II phosphorylation.

7SK/P-TEFb interaction [2] = target: T1, 7SK/P-TEFb interaction (Homo sapiens, UniProt P50750); assay: Direct incubation with nuclear extract, 7SK/P-TEFb interaction; assay type: binding
T1 construct: expressed in transfected cells; host or cells: F1C2 cell line (HeLa stably transfected with pBabe-puro-CDK9-Flag)

HIV-1 transcription = settings: HeLa cells, low levels of drug; cited from earlier work
CDK9/cyclin T1 kinase = assay: CDK9-Flag kinase reaction with purified RNA Pol II as substrate; assay type: biochemical, human; settings: affinity-purified CDK9-Flag; degradation of associated 7SK
Experimental: 7SK could inhibit the activity of P-TEFb by suppressing the kinase activity of CDK9/cyclin T1. Affinity-purified CDK9-Flag and its associated factors were divided into two halves, incubated respectively with RNase A and DNase I, and tested in kinase reactions containing purified RNA Pol II as a substrate (9). […] This increase was significant given that only about 50% of the purified CDK9-Flag/cyclin T1 was associated with 7SK. […] To analyse more specifically the activity of P-TEFb bound to 7SK, this complex was affinity purified from HeLa nuclear extract using the 7SK antisense 2′-OMe RNA beads. Eluted with a displacement deoxyoligonucleotide (15), the P-TEFb bound to 7SK was divided into three equal portions, incubated respectively with RNase A, DNase I or buffer alone, and analysed in kinase reactions.

T1 sequence (P50750 whole entry): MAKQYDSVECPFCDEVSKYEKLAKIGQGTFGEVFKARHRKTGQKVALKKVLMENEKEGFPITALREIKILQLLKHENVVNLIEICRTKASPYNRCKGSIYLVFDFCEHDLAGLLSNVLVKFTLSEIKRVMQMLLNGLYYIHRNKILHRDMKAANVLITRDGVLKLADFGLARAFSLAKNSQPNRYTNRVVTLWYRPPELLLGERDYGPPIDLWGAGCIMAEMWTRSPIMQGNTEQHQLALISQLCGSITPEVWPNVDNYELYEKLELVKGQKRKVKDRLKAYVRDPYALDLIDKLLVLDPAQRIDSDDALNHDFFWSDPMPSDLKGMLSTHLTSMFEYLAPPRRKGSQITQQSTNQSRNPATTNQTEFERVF
T1 sequence (O60563 whole entry partner): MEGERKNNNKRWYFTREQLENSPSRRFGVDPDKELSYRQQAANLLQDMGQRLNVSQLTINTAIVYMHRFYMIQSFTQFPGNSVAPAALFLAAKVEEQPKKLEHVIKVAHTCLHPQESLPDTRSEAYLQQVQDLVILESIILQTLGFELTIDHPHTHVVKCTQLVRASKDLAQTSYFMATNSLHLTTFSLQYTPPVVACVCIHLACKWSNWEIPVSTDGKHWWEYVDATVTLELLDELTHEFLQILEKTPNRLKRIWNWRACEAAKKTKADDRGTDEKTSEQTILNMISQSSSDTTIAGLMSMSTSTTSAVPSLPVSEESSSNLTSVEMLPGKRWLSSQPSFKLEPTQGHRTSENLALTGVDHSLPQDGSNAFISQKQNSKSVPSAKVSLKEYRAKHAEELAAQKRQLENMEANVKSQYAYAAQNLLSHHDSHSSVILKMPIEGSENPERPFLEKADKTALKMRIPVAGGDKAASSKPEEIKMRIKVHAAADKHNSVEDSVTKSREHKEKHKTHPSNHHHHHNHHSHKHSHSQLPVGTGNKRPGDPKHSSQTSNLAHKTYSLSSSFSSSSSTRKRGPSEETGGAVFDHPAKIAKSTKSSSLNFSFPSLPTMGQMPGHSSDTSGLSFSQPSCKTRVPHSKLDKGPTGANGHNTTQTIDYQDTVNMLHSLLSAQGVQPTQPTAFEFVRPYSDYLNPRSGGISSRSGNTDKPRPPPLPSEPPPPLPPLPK

Molecule | amount of 7SK associated with affinity-purified CDK9-Flag (7SK/P-TEFb interaction [1]) | 7SK/P-TEFb interaction (7SK/P-TEFb interaction [2]) | HIV-1 transcription (HIV-1 transcription) | increase of kinase activity of CDK9-Flag (autophosphorylation and phosphorylation of Pol II) (CDK9/cyclin T1 kinase)
Cc1c2oc3c(C)ccc(C(=O)N[C@@H]4C(=O)N[C@H](C(C)C)C(=O)N5CCC[C@H]5C(=O)N(C)CC(=O)N(C)[C@@H](C(C)C)C(=O)O[C@@H]4C)c3nc-2c(C(=O)N[C@@H]2C(=O)N[C@H](C(C)C)C(=O)N3CCC[C@H]3C(=O)N(C)CC(=O)N(C)[C@@H](C(C)C)C(=O)O[C@@H]2C)c(N)c1=O [actinomycin D] (I: T[dV]P[Sar][NMeV] / II: T[dV]P[Sar][NMeV]; ester I:1-I:C, II:1-II:C; linker I:N-II:N via Actinocin(9to1)) | significantly reduced the amount of 7SK associated with the affinity-purified CDK9-Flag | did not disrupt the 7SK/P-TEFb interaction | enhances HIV-1 transcription to levels similar to those obtained by Tat | 
RNase A: ribonuclease used to degrade the CDK9-Flag-associated 7SK (protein, UniProt P61823 27-150, looked up) Ribonuclease pancreatic: KETAAAKFERQHMDSSTSAASSSNYCNQMMKSRNLTKDRCKPVNTFVHESLADVQAVCSQKNVACKNGQTNCYQSYSTMSITDCRETGSSKYPNCAYKTTQANKHIIVACEGNPYVPVHFDASV |  |  |  | 3-4 fold
